Measurements from PubChem BioAssay AID256 (DTP/NCI, 2004).
Inconclusive results and toxic doses are left out. The calls were made as follows: active = survival T/C of 150% or more; inactive = T/C below 125% in these data.

System: CD2F1 mice, L1210 leukemia ip, survival T/C
Assay: NCI In Vivo Anticancer Drug Screen. Data for tumor model L1210 Leukemia (intraperitoneal) in CD2F1 (CDF1) mice
Conditions: endpoint: mean survival time, higher = longer survival
Summary of the method: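 Antitumor effect is scored in animals hosting a serially transplanted tumor. Values compare compound-dosed animals against vehicle-only controls as a simple quotient.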

[1] = dose: 100.0 mg/kg/injection, schedule: Q01DX009 (ip), vehicle: saline with Tween-80
[2] = dose: 100.0 mg/kg/injection, schedule: Q04DX003 (ip), vehicle: other
[3] = dose: 200.0 mg/kg/injection, schedule: Q01DX009 (ip), vehicle: saline with Tween-80
[4] = dose: 200.0 mg/kg/injection, schedule: Q04DX003 (ip), vehicle: other
[5] = dose: 400.0 mg/kg/injection, schedule: Q01DX009 (ip), vehicle: saline with Tween-80
[6] = dose: 400.0 mg/kg/injection, schedule: Q04DX003 (ip), vehicle: other
[7] = dose: 50.0 mg/kg/injection, schedule: Q01DX009 (ip), vehicle: saline with Tween-80
[8] = dose: 100.0 mg/kg/injection, schedule: Q04DX003 (ip), vehicle: saline with Tween-80
[9] = dose: 12.5 mg/kg/injection, schedule: Q01DX009 (ip), vehicle: Klucel (hydroxypropylcellulose) (HPC)
[10] = dose: 25.0 mg/kg/injection, schedule: Q01DX009 (ip), vehicle: Klucel (hydroxypropylcellulose) (HPC)
[11] = dose: 100.0 mg/kg/injection, schedule: Q01DX009 (ip), vehicle: Klucel (hydroxypropylcellulose) (HPC)
[12] = dose: 200.0 mg/kg/injection, schedule: Q01DX009 (ip), vehicle: Klucel (hydroxypropylcellulose) (HPC)

Measured: T/C

CCCCCCCCCCCC(=O)c1ccccc1
inactive: [1] 102 % of control | [2] 95 % of control | [3] 102 % of control | [4] 97 % of control | [5] 98 % of control | [6] 92 % of control

C=CCOc1c(C)cc(C)cc1/C=C/C
inactive: [1] 94 % of control | [3] 89 % of control

COc1ccc(OC)c(C)c1
inactive: [1] 105 % of control | [3] 107 % of control | [5] 104 % of control

CN(C)c1ccc2nc(CC(O)(C(F)(F)F)C(F)(F)F)ccc2c1
inactive: dose: 25.0 mg/kg/injection, schedule: Q01DX009 (ip), vehicle: saline with Tween-80 95 % of control | [7] 95 % of control | [1] 93 % of control | [8] 89 % of control

O=[As](O)(O)Cc1ccccc1
inactive: dose: 6.25 mg/kg/injection, schedule: Q01DX009 (ip), vehicle: Klucel (hydroxypropylcellulose) (HPC) 100 % of control | [9] 89 % of control | [10] 93 % of control

CC1(C)CC2(OC2c2ccc([N+](=O)[O-])cc2)C(=O)c2ccccc21 (stereo not given)
inactive: [9] 93 % of control | [10] 94 % of control | dose: 50.0 mg/kg/injection, schedule: Q01DX009 (ip), vehicle: Klucel (hydroxypropylcellulose) (HPC) 98 % of control | [7] 93 % of control | [11] 100 % of control | [1] 93 % of control | [8] 89 % of control | [12] 100 % of control | [3] 96 % of control | dose: 200.0 mg/kg/injection, schedule: Q04DX003 (ip), vehicle: saline with Tween-80 88 % of control | dose: 400.0 mg/kg/injection, schedule: Q01DX009 (ip), vehicle: Klucel (hydroxypropylcellulose) (HPC) 96 % of control

NCC(O)c1ccc(O)c(O)c1 (stereo not given)
inactive: dose: 0.5 mg/kg/injection, schedule: Q01DX009 (ip), vehicle: saline 98 % of control | dose: 0.75 mg/kg/injection, schedule: Q01DX001 (ip), vehicle: saline 106 % of control | dose: 1.0 mg/kg/injection, schedule: Q01DX009 (ip), vehicle: saline 109 % of control | dose: 1.5 mg/kg/injection, schedule: Q01DX001 (ip), vehicle: saline 98 % of control | dose: 2.0 mg/kg/injection, schedule: Q01DX009 (ip), vehicle: saline 98 % of control | dose: 3.0 mg/kg/injection, schedule: Q01DX001 (ip), vehicle: saline 101 % of control | dose: 4.0 mg/kg/injection, schedule: Q01DX009 (ip), vehicle: saline 113 % of control | dose: 6.0 mg/kg/injection, schedule: Q01DX001 (ip), vehicle: saline 104 % of control | dose: 8.0 mg/kg/injection, schedule: Q01DX009 (ip), vehicle: saline 100 % of control | dose: 12.0 mg/kg/injection, schedule: Q01DX001 (ip), vehicle: saline 100 % of control

Cc1ccc(S(=O)(=O)N=S2CCCC2)cc1
inactive: [2] 102 % of control | [4] 106 % of control | [6] 104 % of control

O=C(O)CCSc1ccc2c(c1)CCCC2
inactive: [11] 101 % of control | [12] 98 % of control

O=C(O)c1cccc(N=Nc2ccc(N(CCCl)CCCl)cc2)c1
inactive: dose: 10.0 mg/kg/injection, schedule: Q01DX009 (ip), vehicle: Klucel (hydroxypropylcellulose) (HPC) 121 % of control | dose: 20.0 mg/kg/injection, schedule: Q01DX009 (ip), vehicle: Klucel (hydroxypropylcellulose) (HPC) 97 % of control | dose: 40.0 mg/kg/injection, schedule: Q01DX009 (ip), vehicle: Klucel (hydroxypropylcellulose) (HPC) 89 % of control

O=C(NC(C(=O)NC(C(=O)O)C1CC(Cl)=NO1)C1CC(Cl)=NO1)OCC1c2ccccc2-c2ccccc21 (stereo not given)
inactive: dose: 1.6 mg/kg/injection, schedule: Q01DX009 (ip), vehicle: saline 122 % of control | dose: 3.1 mg/kg/injection, schedule: Q01DX009 (ip), vehicle: saline 116 % of control | dose: 25.0 mg/kg/injection, schedule: Q01DX009 (ip), vehicle: saline 87 % of control
